Results: patent publication US5397781A, “Pyrimidine derivatives” (Mochida Pharmaceutical Company, Limited, priority 1992, dated 1995)

Tests used:
serum total cholesterol = assay: Hypocholesterolemic effect on cholesterol feeding rats; type: in vivo, male Wistar rats; conditions: Rattus norvegicus, oral, high cholesterol diet rats, read-out: % reduction of serum total cholesterol; for inhibition in vivo at 10 mg/kg: 10 mg/kg/day
Experimental: Hypocholesterolemic effect on cholesterol feeding rats. Male Wistar rats aged 7 weeks old were fed a diet (CE®) supplemented with 2%(w/w) cholesterol, 0.5%(w/w) sodium cholate, 10%(w/w) lard, 0.2%(w/w) propylthiouracyl and 5%(w/w) sucrose, for 3 days. Following 3 days, the compounds of the present invention were administered orally, and the animals were maintained with the high cholesterol diet. On the next day of final drug administration, blood was drown and serum total cholesterol-levels were measured enzymatically by autoanalyzer. CL277082 was used as a reference compound.

male Wistar rats = assay: Acute toxicity; type: in vivo; conditions: 7 days observation
Text: The pyrimidine derivatives of the present invention were examined for acute toxicity by using male Wistar rats fasted over night aged 7 weeks old.

macrophages = assay: Inhibitory effect on cholesteryl ester accumulation in macrophages; type: cell-based, mouse (ddy-family male mice); conditions: Macrophage; mouse peritoneal macrophages, β-VLDL, [3H]oleic acid, 3 hrs; read-out: Inhibition activity on cholesteryl ester accumulation (IC50 grade)
Experimental: Inhibitory effect on cholesteryl ester accumulation in macrophages.
Namely resident peritoneal cells suspended in phosphate-buffered saline (PBS) were plated in plastic Petri dishes (35 mm×10 mm) at a density of 2×10^6 cells. The adherent macrophages were cultured overnight at 37° C. in Dalbecco's modified Eagle medium (DME) containing 10% fetal bovine serum (FCS) under humidified 5% CO2. […] After discarding the medium, each macrophage monolayer was washed with PBS and lipids were extracted with hexane/isopropyl alcohol (3:2). Cholesteryl esters in the extract were separated by thin-layer chromatography and the radioactivity was measured by liquid scintillation counter.

ACAT = biological target: T1, ACAT (Rattus norvegicus, UniProt Q7TQM4); assay: Inhibitory effect on microsomal ACAT activity in rat liver; type: biochemical; conditions: rat liver microsomes; read-out: IC50 (50% inhibition of cholesterol esterification)
T1 construct: Liver microsomes as an enzyme sample of ACAT were prepared from overnight-fasted male rats; from tissue; host or cells: liver of overnight-fasted male rats, 6 weeks old; microsomes
T1 sequence (Q7TQM4 1-524): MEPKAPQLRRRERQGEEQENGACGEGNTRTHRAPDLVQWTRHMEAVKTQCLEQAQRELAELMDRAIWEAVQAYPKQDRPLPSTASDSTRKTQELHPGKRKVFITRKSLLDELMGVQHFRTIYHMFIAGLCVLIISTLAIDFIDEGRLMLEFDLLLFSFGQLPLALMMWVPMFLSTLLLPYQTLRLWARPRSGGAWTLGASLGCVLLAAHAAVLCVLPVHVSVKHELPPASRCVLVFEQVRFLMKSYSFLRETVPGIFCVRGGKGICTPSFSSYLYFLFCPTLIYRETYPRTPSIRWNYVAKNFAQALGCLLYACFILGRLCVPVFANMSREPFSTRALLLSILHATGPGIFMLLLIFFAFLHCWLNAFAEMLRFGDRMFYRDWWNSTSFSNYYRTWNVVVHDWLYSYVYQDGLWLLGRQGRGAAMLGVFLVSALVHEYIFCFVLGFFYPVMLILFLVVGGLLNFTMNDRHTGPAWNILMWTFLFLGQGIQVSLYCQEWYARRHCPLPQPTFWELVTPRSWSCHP

Compound	inhibition in vivo at 10 mg/kg (serum total cholesterol) [%]	lethal incident (acute toxicity) (male Wistar rats; single oral dose 1 g/kg)	IC50 (macrophages) [nM]	IC50 (ACAT) [nM]	inhibition in vivo at 30 mg/kg (serum total cholesterol; 30 mg/kg/day) [%]	lethal incident (acute toxicity) (male Wistar rats; single oral dose 2 g/kg)
CCCCN(CCCC)c1nc(C)nc(SC)c1NC(=O)CCCCN(CCC)c1ccccc1 [Example 247, N-[4-(N,N-dibutylamino)-2-methyl-6-methylthiopyrimidin-5-yl]-5-(N-phenyl-N-propylamino)pentanamide]	76	no lethal incident was observed	10 to 100	16		
CCCCCCN(CCCC(=O)Nc1c(SC)nc(OC)nc1N(CC)CC)c1ccccc1 [Example 233, N-[4-(N,N-diethylamino)-2-methoxy-6-methylthiopyrimidin-5-yl]-4-(N-hexyl-N-phenylamino)butanamide]	76	no lethal incident was observed				
CCCN(CCCC(=O)Nc1c(S)nc(C)nc1N(CCC)c1ccccc1)c1ccccc1 [Example 143, N-[4-mercapto-2-methyl-6-(N-phenyl-N-propylamino)pyrimidin-5-yl]-4-(N-phenyl-N-propylamino)butanamide]			1000 to 10000	80	20	no lethal incident was observed
CCCCCCN(CCCC(=O)Nc1c(S)nc(C)nc1N(CC)CC)c1ccccc1 [Example 155, N-[4-(N,N-diethylamino)-6-mercapto-2-methylpyrimidin-5-yl]-4-(N-hexyl-N-phenylamino)butanamide]	66	no lethal incident was observed		88		
CCCCCCN(CCCC(=O)Nc1c(SCC)nc(C)nc1N(CC)CC)c1ccccc1 [Example 260, N-[4-(N,N-dietylamino)-6-ethylthio-2-methylpyrimidin-5-yl]-4-(N-hexyl-N-phenylamino)butanamide]	70	no lethal incident was observed				
CCCCN(CCCC)c1nc(C)nc(OCC)c1NC(=O)CCCCN(CCC)c1ccccc1 [Example 196, N-[4-(N,N-dibutylamino)-6-ethoxy-2-methylpyrimidin-5-yl]-5-(N-phenyl-N-propylamino)pentanamide]	48	no lethal incident was observed				
